18 compounds from patent publication US8580794B2 (AbbVie Inc., priority 2009, dated 2013) can be followed below.

The structures appear in SMILES notation. Some results are limits rather than exact numbers.

This assay addresses GST-Bc1-2 (Homo sapiens, UniProt P10415). The assay is described as follows: Time Resolved-Fluorescence Resonance Energy Transfer (TR-FRET) Bcl-2 binding assay with F-Bak peptide probe. Particulars: GST-Bcl-2 1 nM, F-Bak probe 100 nM, Tb-anti-GST 1 nM; '<' = below limit of detection; read-out: TR-FRET Bcl-2 Binding Ki. (Time-resolved FRET reads energy transfer from a long-lived donor to a nearby acceptor.)

GST-Bc1-2, sequence (P10415 whole entry): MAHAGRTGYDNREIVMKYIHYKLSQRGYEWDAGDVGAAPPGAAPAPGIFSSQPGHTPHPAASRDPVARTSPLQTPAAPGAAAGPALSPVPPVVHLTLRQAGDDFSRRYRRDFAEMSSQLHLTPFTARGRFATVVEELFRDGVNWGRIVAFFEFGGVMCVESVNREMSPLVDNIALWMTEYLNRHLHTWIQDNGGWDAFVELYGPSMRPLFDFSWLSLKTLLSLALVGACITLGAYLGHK

With `CC1(C)CCC(CN2CCN(c3ccc(C(=O)NS(=O)(=O)c4ccc(NC5CCN(C(C)(C)C)CC5)c(S(=O)(=O)C(F)(F)F)c4)c(Oc4cnc5[nH]ccc5c4)c3)CC2)=C(c2ccc(Cl)cc2)C1` [Example 240, N-({4-[(1-tert-butylpiperidin-4-yl)amino]-3-[(trifluoromethyl)sulfonyl]phenyl}sulfonyl)-4-(4-{[2-(4-chlorophenyl)-4,4-dimethylcyclohex-1-en-1-yl]methyl}piperazin-1-yl)-2-(1H-pyrrolo[2,3-b]pyridin-5-yloxy)benzamide], the Ki (commonly a dissociation constant, usually derived from enzyme kinetics or from competition with a known ligand) was less than 0.01 nM. With `CC1(C)CCC(CN2CCN(c3ccc(C(=O)NS(=O)(=O)c4ccc(NCC5CN(C6COC6)CCO5)c(S(=O)(=O)C(F)(F)F)c4)c(Oc4cnc5[nH]ccc5c4)c3)CC2)=C(c2ccc(Cl)cc2)C1` (stereo not drawn) [Example 241, 4-(4-{[2-(4-chlorophenyl)-4,4-dimethylcyclohex-1-en-1-yl]methyl}piperazin-1-yl)-N-({4-({[4-(oxetan-3-yl)morpholin-2-yl]methyl}amino)-3-[(trifluoromethyl)sulfonyl]phenyl}sulfonyl)-2-(1H-pyrrolo[2,3-b]pyridin-5-yloxy)benzamide] the figure was less than 0.01 nM; with `CC1(C)CCC(CN2CCN(c3ccc(C(=O)NS(=O)(=O)c4cnc(NCC5(F)CCOCC5)c(Cl)c4)c(Oc4cnc5[nH]ccc5c4)c3)CC2)=C(c2ccc(Cl)cc2)C1` [Example 242, N-[(5-chloro-6-{[(4-fluorotetrahydro-2H-pyran-4-yl)methyl]amino}pyridin-3-yl)sulfonyl]-4-(4-{[2-(4-chlorophenyl)-4,4-dimethylcyclohex-1-en-1-yl]methyl}piperazin-1-yl)-2-(1H-pyrrolo[2,3-b]pyridin-5-yloxy)benzamide], 0.057 nM. Regarding `CC1(C)CCC(CN2CCN(c3ccc(C(=O)NS(=O)(=O)c4cnc(NC5CCN(C6CC6)CC5)c(Cl)c4)c(Oc4cnc5[nH]ccc5c4)c3)CC2)=C(c2ccc(Cl)cc2)C1` [Example 243, N-({5-chloro-6-[(1-cyclopropylpiperidin-4-yl)amino]pyridin-3-yl}sulfonyl)-4-(4-{[2-(4-chlorophenyl)-4,4-dimethylcyclohex-1-en-1-yl]methyl}piperazin-1-yl)-2-(1H-pyrrolo[2,3-b]pyridin-5-yloxy)benzamide], the Ki worked out at 0.546 nM. As for `CC1(C)CCC(CN2CCN(c3ccc(C(=O)NS(=O)(=O)c4cnc(OC[C@@H]5CN(CC#N)CCO5)c(Cl)c4)c(Oc4cnc5[nH]ccc5c4)c3)CC2)=C(c2ccc(Cl)cc2)C1` [Example 244, N-[(5-chloro-6-{[(2S)-4-(cyanomethyl)morpholin-2-yl]methoxy}pyridin-3-yl)sulfonyl]-4-(4-{[2-(4-chlorophenyl)-4,4-dimethylcyclohex-1-en-1-yl]methyl}piperazin-1-yl)-2-(1H-pyrrolo[2,3-b]pyridin-5-yloxy)benzamide], the Ki turned out to be 0.281 nM. The result for `CN(C)CC(=O)N1CCO[C@H](COc2ncc(S(=O)(=O)NC(=O)c3ccc(N4CCN(CC5=C(c6ccc(Cl)cc6)CC(C)(C)CC5)CC4)cc3Oc3cnc4[nH]ccc4c3)cc2Cl)C1` [Example 245, N-[(5-chloro-6-{[(2S)-4-(N,N-dimethylglycyl)morpholin-2-yl]methoxy}pyridin-3-yl)sulfonyl]-4-(4-{[2-(4-chlorophenyl)-4,4-dimethylcyclohex-1-en-1-yl]methyl}piperazin-1-yl)-2-(1H-pyrrolo[2,3-b]pyridin-5-yloxy)benzamide] reads 0.015 nM. `CC1(C)CCC(CN2CCN(c3ccc(C(=O)NS(=O)(=O)c4cnc(OC[C@H]5CN(CC#N)CCO5)c(Cl)c4)c(Oc4cnc5[nH]ccc5c4)c3)CC2)=C(c2ccc(Cl)cc2)C1` [Example 246, N-[(5-chloro-6-{[(2R)-4-(cyanomethyl)morpholin-2-yl]methoxy}pyridin-3-yl)sulfonyl]-4-(4-{[2-(4-chlorophenyl)-4,4-dimethylcyclohex-1-en-1-yl]methyl}piperazin-1-yl)-2-(1H-pyrrolo[2,3-b]pyridin-5-yloxy)benzamide]: the Ki came to 0.144 nM. Turning to `CN(C)CC(=O)N1CCO[C@@H](COc2ncc(S(=O)(=O)NC(=O)c3ccc(N4CCN(CC5=C(c6ccc(Cl)cc6)CC(C)(C)CC5)CC4)cc3Oc3cnc4[nH]ccc4c3)cc2Cl)C1` [Example 247, N-[(5-chloro-6-{[(2R)-4-(N,N-dimethylglycyl)morpholin-2-yl]methoxy}pyridin-3-yl)sulfonyl]-4-(4-{[2-(4-chlorophenyl)-4,4-dimethylcyclohex-1-en-1-yl]methyl}piperazin-1-yl)-2-(1H-pyrrolo[2,3-b]pyridin-5-yloxy)benzamide], the Ki stood at 0.019 nM. For the compound `CC1(C)CCC(CN2CCN(c3ccc(C(=O)NS(=O)(=O)c4cnc(OCC5(F)CCOCC5)c(F)c4)c(Oc4cnc5[nH]ccc5c4)c3)CC2)=C(c2ccc(Cl)cc2)C1` [Example 248, 4-(4-{[2-(4-chlorophenyl)-4,4-dimethylcyclohex-1-en-1-yl]methyl}piperazin-1-yl)-N-({5-fluoro-6-[(4-fluorotetrahydro-2H-pyran-4-yl)methoxy]pyridin-3-yl}sulfonyl)-2-(1H-pyrrolo[2,3-b]pyridin-5-yloxy)benzamide], the Ki was determined as 0.029 nM.

`CC1(C)CCC(CN2CCN(c3ccc(C(=O)NS(=O)(=O)c4cnc(OCC(C)(CO)CO)c(Cl)c4)c(Oc4cnc5[nH]ccc5c4)c3)CC2)=C(c2ccc(Cl)cc2)C1` [Example 250, N-({5-chloro-6-[3-hydroxy-2-(hydroxymethyl)-2-methylpropoxy]pyridin-3-yl}sulfonyl)-4-(4-{[2-(4-chlorophenyl)-4,4-dimethylcyclohex-1-en-1-yl]methyl}piperazin-1-yl)-2-(1H-pyrrolo[2,3-b]pyridin-5-yloxy)benzamide]: the inhibitory constant (Ki) was 0.412 nM. With `CC1(C)CCC(CN2CCN(c3ccc(C(=O)NS(=O)(=O)c4ccc(OCC5(F)CCOCC5)nc4)c(Oc4cnc5[nH]ccc5c4)c3)CC2)=C(c2ccc(Cl)cc2)C1` [Example 251, 4-(4-{[2-(4-chlorophenyl)-4,4-dimethylcyclohex-1-en-1-yl]methyl}piperazin-1-yl)-N-({6-[(4-fluorotetrahydro-2H-pyran-4-yl)methoxy]pyridin-3-yl}sulfonyl)-2-(1H-pyrrolo[2,3-b]pyridin-5-yloxy)benzamide], the Ki turned out to be 0.571 nM. With `CC1(C)CCC(CN2CCN(c3ccc(C(=O)NS(=O)(=O)c4ccc(NCC5CN(C(CF)CF)CCO5)c([N+](=O)[O-])c4)c(Oc4cnc5[nH]ccc5c4)c3)CC2)=C(c2ccc(Cl)cc2)C1` (stereo not drawn) [Example 252, 4-(4-{[2-(4-chlorophenyl)-4,4-dimethylcyclohex-1-en-1-yl]methyl}piperazin-1-yl)-N-{[4-({[4-(1,3-difluoropropan-2-yl)morpholin-2-yl]methyl}amino)-3-nitrophenyl]sulfonyl}-2-(1H-pyrrolo[2,3-b]pyridin-5-yloxy)benzamide] the figure was less than 0.01 nM; with `CC1(C)CCC(CN2CCN(c3ccc(C(=O)NS(=O)(=O)c4cnc(OCC5CCN(CC#N)CC5)c(Cl)c4)c(Oc4cnc5[nH]ccc5c4)c3)CC2)=C(c2ccc(Cl)cc2)C1` [Example 253, N-[(5-chloro-6-{[1-(cyanomethyl)piperidin-4-yl]methoxy}pyridin-3-yl)sulfonyl]-4-(4-{[2-(4-chlorophenyl)-4,4-dimethylcyclohex-1-en-1-yl]methyl}piperazin-1-yl)-2-(1H-pyrrolo[2,3-b]pyridin-5-yloxy)benzamide], 0.052 nM; with `COCCOCCN1CC[C@@H](Nc2ccc(S(=O)(=O)NC(=O)c3ccc(N4CCN(CC5=C(c6ccc(Cl)cc6)CC(C)(C)CC5)CC4)cc3Oc3cnc4[nH]ccc4c3)cc2[N+](=O)[O-])C1` [Example 254, 4-(4-{[2-(4-chlorophenyl)-4,4-dimethylcyclohex-1-en-1-yl]methyl}piperazin-1-yl)-N-{[4-({(3R)-1-[2-(2-methoxyethoxy)ethyl]pyrrolidin-3-yl}amino)-3-nitrophenyl]sulfonyl}-2-(1H-pyrrolo[2,3-b]pyridin-5-yloxy)benzamide], less than 0.01 nM. With `CN(C)CC(=O)N1CC[C@@H](Nc2ccc(S(=O)(=O)NC(=O)c3ccc(N4CCN(CC5=C(c6ccc(Cl)cc6)CC(C)(C)CC5)CC4)cc3Oc3cnc4[nH]ccc4c3)cc2[N+](=O)[O-])C1` [Example 255, 4-(4-{[2-(4-chlorophenyl)-4,4-dimethylcyclohex-1-en-1-yl]methyl}piperazin-1-yl)-N-[(4-{[(3R)-1-(N,N-dimethylglycyl)pyrrolidin-3-yl]amino}-3-nitrophenyl)sulfonyl]-2-(1H-pyrrolo[2,3-b]pyridin-5-yloxy)benzamide], the Ki is less than 0.01 nM.

`CC1(C)CCC(CN2CCN(c3ccc(C(=O)NS(=O)(=O)c4ccc(NC5CN(C6COC6)C5)c([N+](=O)[O-])c4)c(Oc4cnc5[nH]ccc5c4)c3)CC2)=C(c2ccc(Cl)cc2)C1` [Example 256, 4-(4-{[2-(4-chlorophenyl)-4,4-dimethylcyclohex-1-en-1-yl]methyl}piperazin-1-yl)-N-[(3-nitro-4-{[1-(oxetan-3-yl)azetidin-3-yl]amino}phenyl)sulfonyl]-2-(1H-pyrrolo[2,3-b]pyridin-5-yloxy)benzamide]: the Ki was less than 0.01 nM. On to `CC1(C)CCC(CN2CCN(c3ccc(C(=O)NS(=O)(=O)c4cnc(OCC5(F)CCN(CC#N)CC5)c(Cl)c4)c(Oc4cnc5[nH]ccc5c4)c3)CC2)=C(c2ccc(Cl)cc2)C1` [Example 257, N-[(5-chloro-6-{[1-(cyanomethyl)-4-fluoropiperidin-4-yl]methoxy}pyridin-3-yl)sulfonyl]-4-(4-{[2-(4-chlorophenyl)-4,4-dimethylcyclohex-1-en-1-yl]methyl}piperazin-1-yl)-2-(1H-pyrrolo[2,3-b]pyridin-5-yloxy)benzamide], for which the Ki stood at 0.052 nM.

As for `CN(C)CC(=O)N1CCO[C@H](CNc2ccc(S(=O)(=O)NC(=O)c3ccc(N4CCN(CC5=C(c6ccc(Cl)cc6)CC(C)(C)CC5)CC4)cc3Oc3cnc4[nH]ccc4c3)cc2[N+](=O)[O-])C1` [Example 258, 4-(4-{[2-(4-chlorophenyl)-4,4-dimethylcyclohex-1-en-1-yl]methyl}piperazin-1-yl)-N-{[4-({[(2R)-4-(N,N-dimethylglycyl)morpholin-2-yl]methyl}amino)-3-nitrophenyl]sulfonyl}-2-(1H-pyrrolo[2,3-b]pyridin-5-yloxy)benzamide], the Ki was less than 0.01 nM.
